Results reported in patent publication US20020090341A1, “Method” (NYCOMED IMAGING AS, priority 1997, published 2002).

System: normal and reperfused infarcted myocardium
Assay: inversion recovery echo planar imaging T1 measurement after coronary occlusion 60 min and reperfusion 120 min
Experimental: Sprague-Dawley rats (female, 270-320 g, n=24) were subjected to occlusion of the anterior branch of the left main coronary artery for 60 minutes, followed by reperfusion for 120 minutes before injecting the test agent. A catheter was placed in the tail vein for administration of contrast media. Animals were connected to an ECG patient monitor and placed in the magnet such that the heart of each rat was at or near ioscenter. Magnetic field was optimized for a central slab of 6 mm thickness, within which the 2 mm section to be imaged was located. Inversion and slice select pulses were calibrated. Inversion recovery echo planar imaging was then used to measure baseline T1 values for myocardium and left ventricle chamber blood.
MnDPDP was then administered at doses of 25, 50 and 100 μmole/kg by intravenous injection of 2.5, 5 and 10 ml/kg, respectively, of the test solution which contained a 10 mM solution of MnDPDP. These injections were followed by a flush of physiologic saline solution (0.9%) such that the combined volumes of test agent and saline flush was 11 ml/kg. All injected solutions were warmed before being administered and were injected slowly over 1.5 mins. T1 values were remeasured at 5 minute intervals during the first 60 minutes after injection. Occasional animals were imaged at 90 minutes for T1 determination (EPI) and for visual inspection of contrast on STIR (short TI inversion recovery) prepared spin echo images.
After imaging was completed, animals were sacrificed by an overdose of pentobarbital and the heart was excised, sectioned and stained in triphenyltetrazolium chloride solution to define the infarcted region.

[1] = 25 μmol/kg, 5 min after injection
[2] = 25 μmol/kg, 10 min after injection
[3] = 25 μmol/kg, 15 min after injection
[4] = 25 μmol/kg, 20 min after injection
[5] = 25 μmol/kg, 25 min after injection
[6] = 25 μmol/kg, 30 min after injection
[7] = 25 μmol/kg, 35 min after injection
[8] = 25 μmol/kg, 40 min after injection
[9] = 25 μmol/kg, 45 min after injection
[10] = 25 μmol/kg, 50 min after injection
[11] = 25 μmol/kg, 55 min after injection
[12] = 25 μmol/kg, 60 min after injection
[13] = 50 μmol/kg, 5 min after injection
[14] = 50 μmol/kg, 10 min after injection
[15] = 50 μmol/kg, 15 min after injection
[16] = 50 μmol/kg, 20 min after injection
[17] = 50 μmol/kg, 25 min after injection
[18] = 50 μmol/kg, 30 min after injection
[19] = 50 μmol/kg, 35 min after injection
[20] = 50 μmol/kg, 40 min after injection
[21] = 50 μmol/kg, 45 min after injection

Cc1ncc(COP(=O)(O)O)c(CN(CCN(CC(=O)[O-])Cc2c(COP(=O)(O)O)cnc(C)c2O)CC(=O)[O-])c1O.[Mn+2] [MnDPDP, manganese (II) chelate of N,N′-bis-(pyridoxal-5-phosphate)-ethylenediamine-N,N′-diacetic acid]
T1 Blood [1]: 1.04 ± 0.02 s
T1 Infarct [1]: 0.76 ± 0.02 s
T1 normal [1]: 0.77 ± 0.01 s
T1 Blood [2]: 1.11 ± 0.02 s
T1 Infarct [2]: 0.82 ± 0.02 s
T1 normal [2]: 0.76 ± 0.01 s
T1 Blood [3]: 1.14 ± 0.02 s
T1 Infarct [3]: 0.86 ± 0.03 s
T1 normal [3]: 0.75 ± 0.01 s
T1 Blood [4]: 1.16 ± 0.02 s
T1 Infarct [4]: 0.90 ± 0.03 s
T1 normal [4]: 0.73 ± 0.01 s
T1 Blood [5]: 1.18 ± 0.02 s
T1 Infarct [5]: 0.92 ± 0.03 s
T1 normal [5]: 0.72 ± 0.01 s
T1 Blood [6]: 1.18 ± 0.02 s
T1 Infarct [6]: 0.93 ± 0.03 s
T1 normal [6]: 0.70 ± 0.01 s
T1 Blood [7]: 1.19 ± 0.02 s
T1 Infarct [7]: 0.95 ± 0.03 s
T1 normal [7]: 0.70 ± 0.01 s
T1 Blood [8]: 1.20 ± 0.02 s
T1 Infarct [8]: 0.98 ± 0.03 s
T1 normal [8]: 0.69 ± 0.01 s
T1 Blood [9]: 1.21 ± 0.02 s
T1 Infarct [9]: 0.99 ± 0.03 s
T1 normal [9]: 0.68 ± 0.01 s
T1 Blood [10]: 1.22 ± 0.02 s
T1 Infarct [10]: 1.00 ± 0.03 s
T1 normal [10]: 0.67 ± 0.01 s
T1 Blood [11]: 1.22 ± 0.02 s
T1 Infarct [11]: 1.01 ± 0.03 s
T1 normal [11]: 0.67 ± 0.01 s
T1 Blood [12]: 1.23 ± 0.02 s
T1 Infarct [12]: 1.02 ± 0.03 s
T1 normal [12]: 0.65 ± 0.01 s
T1 Blood [13]: 0.84 ± 0.02 s
T1 Infarct [13]: 0.59 ± 0.01 s
T1 normal [13]: 0.69 ± 0.01 s
T1 Blood [14]: 0.93 ± 0.03 s
T1 Infarct [14]: 0.65 ± 0.01 s
T1 normal [14]: 0.68 ± 0.01 s
T1 Blood [15]: 0.97 ± 0.02 s
T1 Infarct [15]: 0.69 ± 0.01 s
T1 normal [15]: 0.67 ± 0.01 s
T1 Blood [16]: 1.00 ± 0.02 s
T1 Infarct [16]: 0.73 ± 0.01 s
T1 normal [16]: 0.67 ± 0.01 s
T1 Blood [17]: 1.02 ± 0.03 s
T1 Infarct [17]: 0.76 ± 0.02 s
T1 normal [17]: 0.64 ± 0.01 s
T1 Blood [18]: 1.04 ± 0.03 s
T1 Infarct [18]: 0.80 ± 0.01 s
T1 normal [18]: 0.63 ± 0.01 s
T1 Blood [19]: 1.05 ± 0.03 s
T1 Infarct [19]: 0.82 ± 0.02 s
T1 normal [19]: 0.62 ± 0.01 s
T1 Blood [20]: 1.06 ± 0.03 s
T1 Infarct [20]: 0.85 ± 0.03 s
T1 normal [20]: 0.60 ± 0.01 s
T1 Blood [21]: 1.08 ± 0.03 s
T1 Infarct [21]: 0.87 ± 0.02 s
T1 normal [21]: 0.60 ± 0.01 s
T1 Blood (50 μmol/kg, 50 min after injection): 1.08 ± 0.03 s
